# Results taken from patent publication EP4786469A1, “TRIAZOLE-CONTAINING COMPOUND, AND PREPARATION METHOD AND USE THEREFOR” (Tuojie Biotech (Shanghai) Co., Ltd., priority 2023, dated 2025).
# Biological target: human recombinant αvβ6 protein (Homo sapiens, UniProt P06756+P18564)
# Test: αvβ6 binding assay using fluorescence polarization (FP), competition with a fluorescently labeled RGD peptide
# Conditions: 12 concentration points, highest 10 µM, read-out: αvβ6 IC50
# Method: αvβ6 binding assay using fluorescence polarization (FP) method The analysis was based on competition with a fluorescently labeled RGD peptide for binding to αvβ6. The binding abilities of the test compounds were evaluated and screened according to FP value changes.
# The test compounds (3.5 µL) were added to a 384-well black plate. For each test compound, 12 concentration points were set. The highest concentration was 10 µM, and was serially diluted 3-fold. DMSO control wells were used to determine the maximum signal, and 500 nM compound CWHM-12 [drawing 318]
# HY-18644) control wells were used as the minimum signal.Then, 3.5 µL of a 4× human recombinant αvβ6 protein working solution (Acrobiosystem) was added. After 15 min of incubation at room temperature, 7 µL of a 2× fluorescent RGD peptide solution (Sangon Biotech) was added to each well. After 1 h of incubation at room temperature, FP signals were read using Envision. GraphPad Prism was used to fit inhibition curves and calculate IC50 values.
# The IC50 values (Z factor > 0.5) were calculated using the following formula: Curve fitting formula: Y = Bottom + (Top - Bottom)/(1 + 10^((LogIC50 - X) × Hill Slope)) X: logarithmic value of inhibitor concentration; Y: inhibition percentage; Bottom: minimum response; Top: maximum response; Hill Slope: curve slope. Table 1. Data on the abilities of the compounds (III-h')-(III-m') of the present disclosure to bind to αvβ6
# Sequence of human recombinant αvβ6 protein (P06756 31-992 limits assumed): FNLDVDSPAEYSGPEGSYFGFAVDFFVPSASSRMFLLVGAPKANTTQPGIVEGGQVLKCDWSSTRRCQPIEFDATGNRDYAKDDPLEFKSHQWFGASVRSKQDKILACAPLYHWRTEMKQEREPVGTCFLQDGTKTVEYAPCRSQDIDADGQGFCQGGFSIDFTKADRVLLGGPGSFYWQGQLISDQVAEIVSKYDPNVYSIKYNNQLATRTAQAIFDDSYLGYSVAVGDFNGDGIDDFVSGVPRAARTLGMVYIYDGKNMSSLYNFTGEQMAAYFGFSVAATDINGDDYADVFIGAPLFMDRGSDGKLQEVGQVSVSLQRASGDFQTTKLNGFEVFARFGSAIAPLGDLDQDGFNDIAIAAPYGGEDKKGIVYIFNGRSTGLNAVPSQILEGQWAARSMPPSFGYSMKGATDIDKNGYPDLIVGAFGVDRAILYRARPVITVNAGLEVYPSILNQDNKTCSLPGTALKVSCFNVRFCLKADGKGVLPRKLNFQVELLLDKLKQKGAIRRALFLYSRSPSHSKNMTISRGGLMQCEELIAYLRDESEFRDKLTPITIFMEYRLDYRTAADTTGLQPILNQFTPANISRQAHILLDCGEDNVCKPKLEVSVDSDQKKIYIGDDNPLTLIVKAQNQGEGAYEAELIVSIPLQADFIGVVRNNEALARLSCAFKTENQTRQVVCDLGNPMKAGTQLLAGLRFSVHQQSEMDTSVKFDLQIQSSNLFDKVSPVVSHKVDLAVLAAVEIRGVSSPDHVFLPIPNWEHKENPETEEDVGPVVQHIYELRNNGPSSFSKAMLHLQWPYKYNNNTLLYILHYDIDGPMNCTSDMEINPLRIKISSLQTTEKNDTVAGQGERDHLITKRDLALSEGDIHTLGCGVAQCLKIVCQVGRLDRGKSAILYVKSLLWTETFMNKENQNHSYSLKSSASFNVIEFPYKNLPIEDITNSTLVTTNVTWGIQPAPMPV
# Sequence of human recombinant αvβ6 protein (P18564 22-707 limits assumed): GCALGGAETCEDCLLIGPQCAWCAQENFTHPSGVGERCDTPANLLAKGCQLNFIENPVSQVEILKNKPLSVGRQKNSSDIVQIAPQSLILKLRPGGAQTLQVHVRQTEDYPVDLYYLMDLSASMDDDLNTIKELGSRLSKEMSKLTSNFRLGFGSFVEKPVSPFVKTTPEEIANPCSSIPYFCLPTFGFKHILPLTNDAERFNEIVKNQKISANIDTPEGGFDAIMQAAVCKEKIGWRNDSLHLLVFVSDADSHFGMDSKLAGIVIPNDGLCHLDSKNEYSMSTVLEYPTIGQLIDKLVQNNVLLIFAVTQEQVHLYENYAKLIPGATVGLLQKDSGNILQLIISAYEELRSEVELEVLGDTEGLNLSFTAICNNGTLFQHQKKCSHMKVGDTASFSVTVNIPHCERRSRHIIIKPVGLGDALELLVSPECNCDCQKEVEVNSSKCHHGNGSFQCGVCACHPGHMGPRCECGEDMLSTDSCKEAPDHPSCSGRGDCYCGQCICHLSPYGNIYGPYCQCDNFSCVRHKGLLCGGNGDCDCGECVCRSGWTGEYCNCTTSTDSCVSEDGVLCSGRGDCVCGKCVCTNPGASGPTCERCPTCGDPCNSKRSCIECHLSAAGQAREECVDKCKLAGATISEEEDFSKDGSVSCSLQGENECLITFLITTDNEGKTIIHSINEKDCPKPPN
row,IC50 [nM],Compound
1,2.29,[N-]=[N+]=NCCOCCOCCOCCOCCOc1ccc(-c2ccc([C@H](CC(=O)O)NC(=O)CNC(=O)CCCc3ccc4c(n3)NCCC4)cc2)c2ccccc12 [III-k']
2,1.67,[N-]=[N+]=NCCOCCOCCOCCOCCOc1ccc(-c2ccc([C@H](CC(=O)O)NC(=O)CNC(=O)CCc3ccc4c(n3)NCCC4)cc2)c2ccccc12 [III-l']
3,1.47,[N-]=[N+]=NCCOCCOCCOCCOCCOc1ccc(-c2ccc([C@H](CC(=O)O)NC(=O)CNC(=O)CCCNc3cc4c(cn3)CCCC4)cc2)c2ccccc12 [III-m']
4,1.6,"Cc1ccnc(NCCCC(=O)NCC(=O)N[C@@H](CC(=O)O)c2ccc(-c3ccc(OCCOCCOCCOCCOCCN=[N+]=[N-])c4ccccc34)cc2)c1 [SM6.1-αvβ6, reference compound]"

# Same assay, conditions: read-out: αvβ6 IC50, 12 concentration points, highest 10 µM
row,Compound,IC50 [nM]
1,Cc1ccnc(NCCOC(=O)NCC(=O)N[C@@H](CC(=O)O)c2ccc(-c3ccc(OCCOCCOCCOCCOCCN=[N+]=[N-])c4ccccc34)cc2)c1 [III-h'],0.856
2,Cc1ccnc(NCCNC(=O)NCC(=O)N[C@@H](CC(=O)O)c2ccc(-c3ccc(OCCOCCOCCOCCOCCN=[N+]=[N-])c4ccccc34)cc2)c1 [III-i'],2.47
3,[N-]=[N+]=NCCOCCOCCOCCOCCOc1ccc(-c2ccc([C@H](CC(=O)O)NC(=O)CNC(=O)CCCNc3nccs3)cc2)c2ccccc12 [III-j'],1.98
